This assay can be described thus: Binding affinity towards Opioid receptor delta 1 from guinea pig brain using [3H]naltrindole as radioligand.
What is called Ki is a dissociation constant, usually derived from enzyme kinetics or from competition with a known ligand. Read a low Ki as higher affinity. On to `C[C@H]1C2Cc3ccc(Nc4ccc(N(C)C)cc4)cc3[C@@]1(C)CCN2CC1CC1` [N-(3-Cyclopropylmethyl-6,11-dimethyl-1,2,3,4,5,6-hexahydro-2,6-methano-benzo[d]azocin-8-yl)-N',N'-dimethyl-benzene-1,4-diamine], for which the Ki came out at 75 nM. The same measure for `COc1ccc(CNc2ccc3c(c2)[C@@]2(C)CCN(CC4CC4)C(C3)[C@@H]2C)cc1` [(3-Cyclopropylmethyl-6,11-dimethyl-1,2,3,4,5,6-hexahydro-2,6-methano-benzo[d]azocin-8-yl)-(4-methoxy-benzyl)-amine]: 80 nM; for `C[C@@H]1[C@@H]2Cc3ccc(N)cc3[C@]1(C)CCN2CC1CC1` [3-Cyclopropylmethyl-6,11-dimethyl-1,2,3,4,5,6-hexahydro-2,6-methano-benzo[d]azocin-8-ylamine]: 920 nM; for `Cc1ccc(Nc2ccc3c(c2)[C@@]2(C)CCN(CC4CC4)C(C3)[C@@H]2C)cc1` [(3-Cyclopropylmethyl-6,11-dimethyl-1,2,3,4,5,6-hexahydro-2,6-methano-benzo[d]azocin-8-yl)-p-tolyl-amine]: 6.2 nM. Next, `C[C@H]1C2Cc3ccc(N=C(c4ccccc4)c4ccccc4)cc3[C@@]1(C)CCN2CC1CC1` [Benzhydrylidene-(3-cyclopropylmethyl-6,11-dimethyl-1,2,3,4,5,6-hexahydro-2,6-methano-benzo[d]azocin-8-yl)-amine]: 220 nM; `C[C@H]1[C@H]2Cc3ccc(Nc4ccccc4)cc3[C@@]1(C)CCN2C[C@@H]1CCCO1` [[6,11-Dimethyl-3-(tetrahydro-furan-2-ylmethyl)-1,2,3,4,5,6-hexahydro-2,6-methano-benzo[d]azocin-8-yl]-phenyl-amine]: 35 nM. The same measure for `C[C@H]1C2Cc3ccc(Nc4ccc(C(C)(C)C)cc4)cc3[C@@]1(C)CCN2CC1CC1` [(4-tert-Butyl-phenyl)-(3-cyclopropylmethyl-6,11-dimethyl-1,2,3,4,5,6-hexahydro-2,6-methano-benzo[d]azocin-8-yl)-amine]: 61 nM; for `C[C@H]1C2Cc3ccc(Nc4ccc(Cl)c(Cl)c4)cc3[C@@]1(C)CCN2CC1CC1` [(3-Cyclopropylmethyl-6,11-dimethyl-1,2,3,4,5,6-hexahydro-2,6-methano-benzo[d]azocin-8-yl)-(3,4-dichloro-phenyl)-amine]: 29 nM; for `CC[C@@]12CCN(CC3CC3)C(C(=O)c3ccc(N)cc31)[C@@H]2C` [8-Amino-3-cyclopropylmethyl-6-ethyl-11-methyl-3,4,5,6-tetrahydro-2H-2,6-methano-benzo[d]azocin-1-one]: 81 nM. The molecule `C[C@H]1[C@H]2Cc3ccc(O)cc3[C@@]1(C)CCN2C[C@@H]1CCCO1` returned a Ki of 2.5 nM.

Consider `C[C@H]1C2Cc3ccc(NCc4ccc(Cl)cc4)cc3[C@@]1(C)CCN2CC1CC1` [(4-Chloro-benzyl)-(3-cyclopropylmethyl-6,11-dimethyl-1,2,3,4,5,6-hexahydro-2,6-methano-benzo[d]azocin-8-yl)-amine], for which the affinity corresponds to a Ki of 100 nM. Next, `C[C@H]1C2C(=O)c3ccc(N)cc3[C@@]1(C)CCN2CC1CC1` [8-Amino-3-cyclopropylmethyl-6,11-dimethyl-3,4,5,6-tetrahydro-2H-2,6-methano-benzo[d]azocin-1-one]: 29 nM. Next, `C[C@H]1C2Cc3ccc(Nc4cccnc4)cc3[C@@]1(C)CCN2CC1CC1` [(3-Cyclopropylmethyl-6,11-dimethyl-1,2,3,4,5,6-hexahydro-2,6-methano-benzo[d]azocin-8-yl)-pyridin-3-yl-amine]: 21 nM; `COc1cccc(Nc2ccc3c(c2)[C@@]2(C)CCN(CC4CC4)C(C3)[C@@H]2C)c1` [(3-Cyclopropylmethyl-6,11-dimethyl-1,2,3,4,5,6-hexahydro-2,6-methano-benzo[d]azocin-8-yl)-(3-methoxy-phenyl)-amine]: 13 nM; `C[C@H]1C2C(=O)c3ccc(O)cc3[C@@]1(C)CCN2CC1CC1` [3-Cyclopropylmethyl-8-hydroxy-6,11-dimethyl-3,4,5,6-tetrahydro-2H-2,6-methano-benzo[d]azocin-1-one]: 20 nM.

Consider `COc1ccc(Nc2ccc3c(c2)[C@@]2(C)CCN(CC4CC4)C(C3)[C@@H]2C)cc1` [(3-Cyclopropylmethyl-6,11-dimethyl-1,2,3,4,5,6-hexahydro-2,6-methano-benzo[d]azocin-8-yl)-(4-methoxy-phenyl)-amine], for which the Ki came to 8.3 nM. `COc1ccccc1Nc1ccc2c(c1)[C@@]1(C)CCN(CC3CC3)C(C2)[C@@H]1C` [(3-Cyclopropylmethyl-6,11-dimethyl-1,2,3,4,5,6-hexahydro-2,6-methano-benzo[d]azocin-8-yl)-(2-methoxy-phenyl)-amine] had a Ki of 98 nM. The same measure for `C[C@H]1C2Cc3ccc(Nc4ccc(C(F)(F)F)cc4)cc3[C@@]1(C)CCN2CC1CC1` [(3-Cyclopropylmethyl-6,11-dimethyl-1,2,3,4,5,6-hexahydro-2,6-methano-benzo[d]azocin-8-yl)-(4-trifluoromethyl-phenyl)-amine]: 180 nM; for `C[C@H]1[C@H]2Cc3ccc(N)cc3[C@@]1(C)CCN2C[C@@H]1CCCO1` [6,11-Dimethyl-3-(tetrahydro-furan-2-ylmethyl)-1,2,3,4,5,6-hexahydro-2,6-methano-benzo[d]azocin-8-ylamine]: 370 nM; for `C[C@H]1C2Cc3ccc(Nc4ccc(Cl)cc4)cc3[C@@]1(C)CCN2CC1CC1` [(4-Chloro-phenyl)-(3-cyclopropylmethyl-6,11-dimethyl-1,2,3,4,5,6-hexahydro-2,6-methano-benzo[d]azocin-8-yl)-amine]: 26 nM. `C[C@H]1C2Cc3ccc(Nc4ccncc4)cc3[C@@]1(C)CCN2CC1CC1` [(3-Cyclopropylmethyl-6,11-dimethyl-1,2,3,4,5,6-hexahydro-2,6-methano-benzo[d]azocin-8-yl)-pyridin-4-yl-amine]: affinity was put at a Ki of 240 nM. Against the preceding molecule, the Ki is about 9.2-fold higher. In turn, `C[C@H]1C2Cc3cc4c(cc3[C@@]1(C)CCN2CC1CC1)[nH]c1ccccc14` [17-cyclopropylmethyl-1,20-dimethyl-(1S,20R)-5,17-diazapentacyclo[14.3.1.02,14.04,12.06,11]icosa-2(14),3,6(11),7,9,12-hexaene] displayed a Ki of 170 nM. The same measure for `CC[C@@]12CCN(CC3CC3)C(C(=O)c3ccc(Nc4ccccc4)cc31)[C@@H]2C` [3-Cyclopropylmethyl-6-ethyl-11-methyl-8-phenylamino-3,4,5,6-tetrahydro-2H-2,6-methano-benzo[d]azocin-1-one]: 37 nM; for `C[C@H]1C2Cc3ccc(N(C)C)cc3[C@@]1(C)CCN2CC1CC1` [((6S,11R)-3-Cyclopropylmethyl-6,11-dimethyl-1,2,3,4,5,6-hexahydro-2,6-methano-benzo[d]azocin-8-yl)-dimethyl-amine]: 810 nM; for `C[C@H]1C2Cc3ccc(Nc4ccccn4)cc3[C@@]1(C)CCN2CC1CC1` [(3-Cyclopropylmethyl-6,11-dimethyl-1,2,3,4,5,6-hexahydro-2,6-methano-benzo[d]azocin-8-yl)-pyridin-2-yl-amine]: 11 nM.

The values above are taken from BindingDB's records for doi:10.1021/jm020429w (Rensselaer Polytechnic Institute, 2003).
